Results taken from patent US20150175655A1 (priority 2012, published 2015).
Like-named read-outs stand apart in the source and are kept apart here.

Legend:
[1] = system: genotype 1a stable HCV replicon (H77 strain) in Huh-7-derived cells; assay: Stable subgenomic HCV replicon EC50, genotype 1a (Renilla luciferase); format: cell-based; conditions: Hepatitis C virus, stable replicon genotype 1a, 72 h, read-out: EC50 1A RLUC
Protocol: (§1) Antiviral potency (EC50) was determined in both stable subgenomic HCV replicon cell lines and transient-transfected HCV replicon cells. The term half maximal effective concentration (EC50) refers to the concentration of a drug which induces a response halfway between the baseline and maximum after the exposure time specified below.
(§2) Stable subgenomic HCV replicons for genotype 1a, 1 b, 2a, 3a, and 4a were established in Huh-7-derived cells as described by Lohmann et al (Lohmann V, Korner F, Koch J, et al Replication of subgenomic hepatitis C virus RNAs in a hepatoma cell line. Science 1999; 285:119-3). Each stable cell line contains a bicistronic HCV replicon that encodes a humanized Renilla luciferase (hRLuc) reporter gene fused to a selectable neomycin-resistance gene, followed by an EMCV IRES and the NS3-NS5B coding region of HCV. […] Luciferase activity was measured as a marker for intracellular HCV replication levels.
(§3) The genotype 1a stable replicon was derived from the H77 HCV strain and contained adaptive mutations P1496L and S2204I. The genotype 1 b stable replicon was derived from the Cont HCV strain and contained adaptive mutations E1202G, T1280I, and K1846T. […] The genotype 3a stable replicon was derived from the S52 HCV strain and contained adaptive mutations P1121 L, A1198T and S2210I (equivalent to S2204I in genotype 1). The genotype 4a stable replicon was derived from the ED43 HCV strain and contained adaptive mutations Q1691R and S2204I. All replicon cell lines were propagated in Huh-7-derived cells and maintained in Dulbecco's modified Eagle's Medium (DMEM) supplemented with 10% fetal bovine serum (FBS) and 0.5 mg/mL G418.
(§4) To perform EC50 assays, cells from each HCV replicon were dispensed into 384-well plates. Compounds were dissolved in DMSO at a concentration of 10 mM and diluted in DMSO using an automated pipetting instrument. Three-fold serially diluted compounds were directly added to the cells using an automated instrument. […] Seventy-two hours later, cells were lysed and Renilla luciferase activity were quantified as recommended by the manufacturer (Promega-Madison, Wis.). Non-linear regression was performed to calculate EC50 values.

[2] = system: genotype 1b stable HCV replicon in Huh-7-derived cells; assay: Stable subgenomic HCV replicon EC50, genotype 1b (Renilla luciferase); format: cell-based; conditions: Hepatitis C virus, stable replicon genotype 1b, 72 h, read-out: EC50 1B RLUC
Protocol: as §1, §2, §3, §4

[3] = system: genotype 2a stable HCV replicon (JFH-1 strain) in Huh-7-derived cells; assay: Stable subgenomic HCV replicon EC50, genotype 2a (Renilla luciferase); format: cell-based; conditions: Hepatitis C virus, stable replicon genotype 2a, 72 h, read-out: EC50 2A RLUC
Protocol: as §1, §2, §3, §4

[4] = system: genotype 3a stable HCV replicon (S52 strain) in Huh-7-derived cells; assay: Stable subgenomic HCV replicon EC50, genotype 3a (Renilla luciferase); format: cell-based; conditions: Hepatitis C virus, 72 h, read-out: EC50 3A RLUC
Protocol: as §1, §2, §3, §4

[5] = system: genotype 4a stable HCV replicon (ED43 strain) in Huh-7-derived cells; assay: Stable subgenomic HCV replicon EC50, genotype 4a (Renilla luciferase); format: cell-based; conditions: Hepatitis C virus, 72 h, read-out: EC50 4A RLUC
Protocol: as §1, §2, §3, §4

[6] = system: genotype 1a (H77) wild-type transient HCV replicon in Huh-7-derived cells; assay: Transient-transfected HCV replicon EC50, genotype 1a wild type; format: cell-based; conditions: Hepatitis C virus; transient-transfected replicon genotype 1a wild type, 72 h; read-out: EC50 1A WT
[7] = system: genotype 1a transient HCV replicon, NS3/4a protease inhibitor resistant variant R155K, in Huh-7-derived cells; assay: Transient-transfected HCV replicon EC50, genotype 1a R155K; format: cell-based; conditions: Hepatitis C virus, 72 h, read-out: EC50 1A R155K
[8] = system: genotype 1b (Con1) wild-type transient HCV replicon in Huh-7-derived cells; assay: Transient-transfected HCV replicon EC50, genotype 1b wild type; format: cell-based; conditions: Hepatitis C virus; transient-transfected replicon genotype 1b wild type, 72 h; read-out: EC50 1B WT
[9] = system: genotype 1b transient HCV replicon, NS3/4a protease inhibitor resistant variant D168A, in Huh-7-derived cells; assay: Transient-transfected HCV replicon EC50, genotype 1b D168A; format: cell-based; conditions: Hepatitis C virus, 72 h, read-out: EC50 1B D168A
[10] = rcm bond, Zhan 1B, DCE

For `CC[C@@H]1[C@@H]2CN(C(=O)[C@H](C(C)(C)C)NC(=O)O[C@]3(C(F)(F)F)CCC[C@H]3CCCCCc3nc4ccc(OC)cc4nc3O2)[C@@H]1C(=O)N[C@]1(C(=O)NS(=O)(=O)C2CC2)C[C@H]1C(F)F` [Example 11, (7S,10S,11S,12R)-7-tert-butyl-N-[(1R,2R)-1-[(cyclopropylsulfonyl)carbamoyl]-2-(difluoromethyl)cyclopropyl]-11-ethyl-16-methoxy-5,8-dioxo-3aR-(trifluoromethyl)-1,2,3,3a,5,6,7,8,11,12,20,21,22,23,24,24a-hexadecahydro-10H-9,12-methanocyclopenta[18,19][1,10,3,6]dioxadiazacyclononadecino[11,12-b]quinoxaline-10-carboxamide], the EC50 [1] was 28 nM, the EC50 [2] was 17 nM and the EC50 [3] was 34 nM. The EC50 [4] was 1160 nM, the EC50 [5] was 19 nM and the EC50 [6] was 20 nM. It also gave an EC50 [7] of 159 nM, an EC50 [8] of 9.4 nM and an EC50 [9] of 605 nM.

In the case of `COC(=O)[C@@H]1[C@H](C2CC2)[C@@H]2CN1C(=O)[C@H](C(C)(C)C)NC(=O)O[C@@H]1C[C@H]1CCCC=Cc1nc3ccc(OC)cc3nc1O2`, the ring closure, yield of all isomers ([10]; from C=CCCC[C@@H]1C[C@H]1OC(=O)N[C@H](C(=O)N1C[C@H](Oc2nc3cc(OC)ccc3nc2C=C)[C@@H](C2CC2)[C@H]1C(=O)OC)C(C)(C)C, 4.96 mM, 83.0 °C, 0.83 h) is reported as 39%.

For `COc1ccc2nc3c(nc2c1)O[C@H]1CN(C(=O)[C@H](C(C)(C)C)NC(=O)O[C@@H]2C[C@@H]4C[C@@H]4[C@H]2CCCC=C3)[C@H](C(=O)OC(C)(C)C)[C@@H]1C`, the ring closure, yield of all isomers ([10]; from C=CCCCC1C(OC(=O)N[C@H](C(=O)N2C[C@H](Oc3nc4cc(OC)ccc4nc3C=C)[C@@H](C)[C@H]2C(=O)OC(C)(C)C)C(C)(C)C)CC2CC21, 2.91 mM, 85.0 °C, 1.75 h) was 33.1%.

For `CC[C@@H]1[C@@H]2CN(C(=O)[C@H](C(C)(C)C)NC(=O)O[C@@]3(C(F)(F)F)CCC[C@H]3CCCCCc3nc4ccc(OC)cc4nc3O2)[C@@H]1C(=O)N[C@]1(C(=O)NS(=O)(=O)C2CC2)C[C@H]1C(F)F` [Example 12, (7S,10S,11S,12R)-7-tert-butyl-N-[(1R,2R)-1-[(cyclopropylsulfonyl)carbamoyl]-2-(difluoromethyl)cyclopropyl]-11-ethyl-16-methoxy-5,8-dioxo-3a5-(trifluoromethyl)-1,2,3,3a,5,6,7,8,11,12,20,21,22,23,24,24a-hexadecahydro-10H-9,12-methanocyclopenta[18,19][1,10,3,6]dioxadiazacyclononadecino[11,12-b]quinoxaline-10-carboxamide], the EC50 [1] was 34 nM, the EC50 [2] was 18 nM and the EC50 [3] was 25 nM. It also gave an EC50 [4] of 2010 nM, an EC50 [5] of 21 nM and an EC50 [6] of 14 nM. For the same compound, the EC50 [7] was 283 nM, the EC50 [8] was 5.7 nM and the EC50 [9] was 640 nM.

In the case of `CC[C@@H]1[C@@H]2CN(C(=O)[C@H](C(C)(C)C)NC(=O)O[C@]3(C)CCC[C@H]3CCCC=Cc3nc4ccc(OC)cc4nc3O2)[C@@H]1C(=O)OC`, the ring closure, yield of all isomers ([10]; from C=CCCC[C@@H]1CCC[C@@]1(C)OC(=O)N[C@H](C(=O)N1C[C@H](Oc2nc3cc(OC)ccc3nc2C=C)[C@@H](CC)[C@H]1C(=O)OC)C(C)(C)C, 19.9 mM, 80.0 °C, […]) is reported as 77.2%.

In the case of `COc1ccc2nc3c(nc2c1)O[C@H]1CN(C(=O)[C@H](C(C)(C)C)NC(=O)O[C@@H]2CCN(C(C)=O)C2CCCCC3)[C@H](C(=O)N[C@]2(C(=O)NS(=O)(=O)C3(C)CC3)C[C@H]2C(F)F)[C@@H]1C` (stereo partly drawn) [Example 80, (3aR,7S,10S,11S,12R)-1-acetyl-7-tert-butyl-N-[(1R,2R)-2-(difluoromethyl)-1-{[(1-methylcyclopropyl)sulfonyl]carbamoyl}cyclopropyl]-16-methoxy-11-methyl-5,8-dioxo-1,2,3,3a,5,6,7,8,11,12,20,21,22,23,24,24a-hexadecahydro-10H-9,12-methanopyrrolo[2′,3′:18,19][1,10,3,6]dioxadiazacyclononadecino[11,12-b]quinoxaline-10-carboxamide], the EC50 [4] is reported as ≥ 44400 nM.

For `CC[C@@H]1[C@@H]2CN(C(=O)[C@H](C(C)(C)C)NC(=O)OC3(C(F)(F)F)CCCC3CCCC=Cc3nc4ccc(OC)cc4nc3O2)[C@@H]1C(=O)OC(C)(C)C` (some centres unmarked), the ring closure, yield of all isomers ([10]; from C=CCCCC1CCCC1(OC(=O)N[C@H](C(=O)N1C[C@H](Oc2nc3cc(OC)ccc3nc2C=C)[C@@H](CC)[C@H]1C(=O)OC(C)(C)C)C(C)(C)C)C(F)(F)F, 5.0 mM, 100.0 °C, 0.5 h) was 84.7%.
